Experimental data: patent publication US4260774A, “5-Carbamoyl imidazoles” (Sumitomo Chemical Company, Limited, priority 1976, dated 1981)

Columns and labels:
[1] = tested on: plaque forming cell (PFC); assay: Immunosuppressive activity: plaque forming cell (PFC) number by Cunningham method in mice injected with sheep red blood cells; type: in vivo; conditions: days 0 to 3, measured day 4
Method: The immunosuppressive activities of the compounds of the present invention, Azathioprine and 6-mercaptopurine are given in the following table. After a sheep red blood cell preparation (SRBC) was injected in mice, the compounds were administered orally once a day on days 0 to 3. The plaque forming cell (PFC) number was measured on day 4 by Cunningham method. [Cunningham A. J. et al. Immunol. 14, 599 (1968)]

[2] = tested on: Sarcoma 180; assay: Antitumor effect on mouse experimental tumor Sarcoma 180 (solid); type: in vivo, mouse (ICR-JCL male mice); conditions: Sarcoma-180, ip, 240 h; for inhibition in vivo at 100 mg/kg: 100 mg/kg i.p.
Method: ICR-JCL male mice, 5 weeks old, weighing between 23 and 26 grams were used. Each test group was composed of 5 mice. One million cells of Sarcoma 180 were injected intramusculary in hind leg. The drug was administered intrapenitoneally at day 1, 3, 5, 7 and 9. After killing the mice at day 10, tumors were removed and weighed. The tumor inhibitory ratio was calculated according to the following formula. [formula]

[3] = in words; literature; cited from earlier work
[4] = tested on: L5178Y cells; conditions: in words; literature; suggested due to metabolic conversion to bredinin; cited from earlier work
[5] = tested on: lymphatic leukemia L1210; conditions: in words; literature; cited from earlier work
[6] = tested on: mouse leukemia P388; assay: Antitumor effect on mouse experimental tumor P388 leukemia; type: in vivo, CDF1 mouse; conditions: day 1 & 5
Description: The antitumor activities of the compounds of the present invention were estimated according to the methods described in "Oyo-Yakuri," Vol. 14, P. 521 (in Japanese).
animals: CDF1 mouse (6 mice/group)
tumor: mouse leukemia P388
inoculum size: 10^6 cells/mouse
day of administration: day 1 & 5
administration route: i.p.
evaluation: median survival time

[7] = day 1, 3, 5, 7 and 9, tumor weight day 10, read-out: Inhibition Ratio (%) Sarcoma 180 (solid)
[8] = read-out: Inhibition Ratio (%) Sarcoma 180 (solid)

## NC(=O)c1[nH]cnc1OC(=O)c1ccccc1 [5-Carbamoyl-1H-imidazole-4-yl benzoate, 5-carbamoyl-1H-imidazol-4-yl benzoate]
[1]; 25 mg/kg/day p.o.
  Effects PFC/spleen × 10^-4: 19.88 ± 6.06 PFC/spleen × 10^-4
  Suppression (%): 68.1%
[1]; 100 mg/kg/day p.o.
  Effects PFC/spleen × 10^-4: 8.63 ± 2.61 PFC/spleen × 10^-4
  Suppression (%): 89.4%

## NC(=O)c1[nH]cnc1OC(=O)c1ccc([N+](=O)[O-])cc1 [5-Carbamoyl-1H-imidazol-4-yl p-nitrobenzoate]
[2]; [7]
  inhibition in vivo at 100 mg/kg: 44.7%

## N#Cc1cccc(C(=O)Oc2nc[nH]c2C(N)=O)c1 [5-Carbamoyl-1H-imidazol-4-yl m-cyanobenzoate]
[2]; [7]
  inhibition in vivo at 100 mg/kg: 38.3%

## Cn1cnc([N+](=O)[O-])c1Sc1ncnc2nc[nH]c12 [Azathioprine, 6-(1-methyl-4-nitro-5-imidazolyl)mercaptopurine, reference compound]
[1]; 100 mg/kg/day p.o.
  Effects PFC/spleen × 10^-4: 26.73 PFC/spleen × 10^-4
  Suppression (%): 81.6%

## NC(=O)c1[nH]cnc1OC(=O)c1ccc2c(c1)OCO2 [5-carbamoyl-1H-imidazol-4-yl 3,4-methylenedioxybenzoate]
[2]; [7]
  inhibition in vivo at 100 mg/kg: 65.1%

## O=c1[nH]cc(F)c(=O)[nH]1 [5-Fluorouracil, reference compound]
[2]; [8]
  inhibition in vivo at 30 mg/kg: 66%

## NC(=O)c1nc[nH]c1O [4-carbamoylimidazolium-5-olate]
[3]
  immunosuppressive activity / effects: immunosuppressive effects
[4]
  growth inhibitory effects on L5178Y cells: growth inhibitory effects

## NC(=O)c1[nH]cnc1OC(=O)c1ccc(Br)cc1 [5-carbamoyl-1H-imidazol-4-yl p-bromobenzoate]
[2]; [7]
  inhibition in vivo at 100 mg/kg: 66%

## NC(=O)c1ncn([C@@H]2O[C@H](CO)[C@@H](O)[C@H]2O)c1O [bredinin, 4-carbamoyl-1-β-D-ribofuranosylimidazolium-5-olate]
[3]
  immunosuppressive activity / effects: has immunosuppressive activity
[5]
  antitumor activity against lymphatic leukemia L1210: weak antitumor activity

## Sc1ncnc2nc[nH]c12 [6-Mercaptopurine, 6-mercaptopurine, reference compound]
[1]; 25 mg/kg/day p.o.
  Effects PFC/spleen × 10^-4: 30.78 ± 6.28 PFC/spleen × 10^-4
  Suppression (%): 60.2%

## NC(=O)c1[nH]cnc1OC(=O)c1ccc(Cl)cc1 [5-carbamoyl-1H-imidazol-4-yl p-chlorobenzoate]
[1]; 25 mg/kg/day p.o.
  Effects PFC/spleen × 10^-4: 22.06 ± 5.37 PFC/spleen × 10^-4
  Suppression (%): 64.6%
[2]; [7]
  inhibition in vivo at 100 mg/kg: 49.1%

## NC(=O)c1[nH]cnc1OC(=O)C12CC3CC(CC(C3)C1)C2 [5-carbamoyl-1H-imidazol-4-yl 1-adamantanecarboxylate]
[1]; 25 mg/kg/day p.o.
  Effects PFC/spleen × 10^-4: 14.19 ± 2.24 PFC/spleen × 10^-4
  Suppression (%): 77.2%
[1]; 100 mg/kg/day p.o.
  Effects PFC/spleen × 10^-4: 5.19 ± 1.29 PFC/spleen × 10^-4
  Suppression (%): 93.6%
[2]; 50 mg/kg i.p., day 1, 3, 5, 7 and 9, tumor weight day 10, read-out: Inhibition Ratio (%) Sarcoma 180 (solid)
  inhibition in vivo at 50 mg/kg: 53.9%
[2]; [7]
  inhibition in vivo at 100 mg/kg: 71.4%
[2]; 200 mg/kg i.p., day 1, 3, 5, 7 and 9, tumor weight day 10, read-out: Inhibition Ratio (%) Sarcoma 180 (solid)
  inhibition in vivo at 200 mg/kg: 88.8%
[2]; 206 mg/kg i.p., day 1, 3, 5, 7 and 9, tumor weight day 10, read-out: Inhibition Ratio (%) Sarcoma 180 (solid)
  inhibition in vivo at 206 mg/kg: 100%
[6]; 100 mg/kg i.p.
  Evaluation T/C (%) P388 (median survival time): 112%
[6]; 200 mg/kg i.p.
  Evaluation T/C (%) P388 (median survival time): 120%
[6]; 400 mg/kg i.p.
  Evaluation T/C (%) P388 (median survival time): 138%

## NC(=O)c1[nH]cnc1OC(=O)c1ccc(F)cc1 [5-Carbamoyl-1H-imidazol-4-yl p-fluorobenzoate]
[2]; [7]
  inhibition in vivo at 100 mg/kg: 36%

## CO[C@@]12[C@H](COC(N)=O)C3=C(C(=O)C(C)=C(N)C3=O)N1C[C@@H]1N[C@@H]12 [Mitomycin C, reference compound]
[2]; [8]
  inhibition in vivo at 2 mg/kg: 74%

## Cc1ccc(C(=O)Oc2nc[nH]c2C(N)=O)cc1 [5-Carbamoyl-1H-imidazol-4-yl p-methylbenzoate]
[2]; [7]
  inhibition in vivo at 100 mg/kg: 38.3%
